In US11981661B2, “Heterocyclic compounds” (Hoffmann-La Roche Inc., priority 2020, dated 2024):

Molecular target: T1, MAGL (Homo sapiens, UniProt Q99685)
T1 sequence (Q99685 1-303): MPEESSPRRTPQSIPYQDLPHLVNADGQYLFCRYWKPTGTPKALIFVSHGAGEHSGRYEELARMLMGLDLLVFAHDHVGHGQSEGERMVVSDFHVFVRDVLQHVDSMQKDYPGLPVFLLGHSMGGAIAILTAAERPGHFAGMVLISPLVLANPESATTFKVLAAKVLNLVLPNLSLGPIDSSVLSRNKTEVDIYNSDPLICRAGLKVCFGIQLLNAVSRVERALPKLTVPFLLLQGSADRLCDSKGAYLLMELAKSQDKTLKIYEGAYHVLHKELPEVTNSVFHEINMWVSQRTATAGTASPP
Experiment: 2-AG assay (MAGL inhibitory activity, hydrolysis of 2-arachidonoylglycerol followed by mass spectrometry)
Type: biochemical
Details: 50 pM MAGL, 8 μM 2-arachidonoylglycerol, 15 min preincubation, 30 min incubation at RT, concentration range 12.5 μM to 0.8 pM
In short: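 Activity derived from the arachidonic acid/d8-arachidonic acid MS intensity ratio after acetonitrile quench. Reaction: 8 μM 2-AG substrate with 50 pM MAGL, 30 min at RT, following 15 min RT compound preincubation; buffer 50 mM TRIS, 1 mM EDTA, 0.01% Tween; final compound range 12.5 μM to 0.8 pM.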

Row | SMILES | IC50 [nM]
1 | CC(C)(O)C1CN(c2ccc(C3CN(C(=O)CC[C@@H]4COC(=O)N4)C3)cn2)C1 [Example 170, (4R)-4-[3-[3-[6-[3-(1-Hydroxy-1-methyl-ethyl)azetidin-1-yl]-3-pyridyl]azetidin-1-yl]-3-oxo-propyl]oxazolidin-2-one] | 329
2 | O=C1N[C@H](COC(=O)N2CC(c3ccc(C4(C(F)(F)F)CC4)cc3)C2)CO1 [Example 56, [(4S)-2-Oxooxazolidin-4-yl]methyl 3-[4-[1-(trifluoromethyl)cyclopropyl]phenyl] azetidine-1-carboxylate] | 5
3 | NC(=O)c1cc(Cl)ccc1Oc1ccc(C2CN(C(=O)CC[C@@H]3COC(=O)N3)C2)cn1 [Example 85, 5-Chloro-2-[[5-[1-[3-[(4R)-2-oxooxazolidin-4-yl]propanoyl]azetidin-3-yl]-2-pyridyl]oxy]benzamide] | 123
4 | O=C(CCc1cccc(=O)[nH]1)N1CC(OCc2ccc(C(F)(F)F)cc2F)C1 [Example 48, 6-[3-[3-[[2-Fluoro-4-(trifluoromethyl)phenyl]methoxy]azetidin-1-yl]-3-oxo-propyl]-1H-pyridin-2-one] | 598
5 | O=C1N[C@H](CCC(=O)N2CC(c3ccc(N4CCC(C(F)(F)F)C4)cc3)C2)CO1 (stereo partly drawn) [Example 135, (4R)-4-[3-Oxo-3-[3-[4-[3-(trifluoro-methyl)pyrrolidin-1-yl]phenyl]azetidin-1-yl]propyl] oxazolidin-2-one] | 5
6 | O=C1CSC[C@H](CCC(=O)N2CC(OCc3ccc(C(F)(F)F)cc3F)C2)N1 [Example 88, (5S)-5-[3-[3-[[2-Fluoro-4-(trifluoromethyl)phenyl]methoxy]azetidin-1-yl]-3-oxo-propyl]thiomorpholin-3-one] | 1300
7 | CS(=O)(=O)c1ccc(C(c2ccccc2)C2CCN(C(=O)CC[C@@H]3COC(=O)N3)CC2)cc1 (single isomer, unassigned) [Example 83, (+)- or (−)-(4R)-4-[3-[4-[(4-Methyl-sulfonylphenyl)-phenyl-methyl]-1-piperidyl]-3-oxo-propyl]oxazolidin-2-one] | 44
8 | CC1(CCC(=O)N2CC(c3ccc(Oc4cccc(Cl)c4)nc3)C2)CCC(=O)N1 (single isomer, unassigned) [Example 18, (+)- or (−)-5-[3-[3-[6-(3-Chlorophenoxy)-3-pyridyl]azetidin-1-yl]-3-oxo-propyl]-5-methyl-pyrrolidin-2-one] | 2670
9 | CS(=O)(=O)c1cc(Cl)ccc1-c1ccc(C2CN(C(=O)CCC3CNC(=O)N3)C2)cc1 (single isomer, unassigned) [Example 218, (+)- or (−)-4-[3-[3-[4-(4-Chloro-2-methylsulfonyl-phenyl)phenyl]azetidin-1-yl]-3-oxo-propyl]imidazolidin-2-one] | 1210
10 | CS(=O)(=O)c1cc(C2CN(C(=O)CC[C@@H]3COC(=O)N3)C2)ccc1-c1ccc(Cl)cc1F [Example 120, (4R)-4-[3-[3-[4-(4-Chloro-2-fluoro-phenyl)-3-methylsulfonyl-phenyl]azetidin-1-yl]-3-oxo-propyl]oxazolidin-2-one] | 19
11 | O=C1CC[C@@H](COC(=O)N2CC(OCc3ccc(C(F)(F)F)cc3F)C2)N1 [Example 52, [(2S)-5-Oxopyrrolidin-2-yl]methyl 3-[[2-fluoro-4-(trifluoromethyl)phenyl]methoxy]azetidine-1-carboxylate] | 167
12 | Cc1ncccc1Oc1ccc(C2CN(C(=O)CC[C@@H]3COC(=O)N3)C2)cc1 [Example 79, (4R)-4-[3-[3-[4-[(2-Methyl-3-pyridyl)oxy]phenyl]azetidin-1-yl]-3-oxo-propyl]oxazolidin-2-one] | 33
13 | CS(=O)(=O)c1ccc(-c2ccc(C3CN(C(=O)CC[C@@H]4COC(=O)N4)C3)cc2)c(Cl)c1 [Example 73, (4R)-4-[3-[3-[4-(2-Chloro-4-methyl-sulfonyl-phenyl)phenyl]azetidin-1-yl]-3-oxo-propyl]oxazolidin-2-one] | 1
14 | CC1(CCC(=O)N2CC(OCc3ccc(C(F)(F)F)cc3F)C2)CCC(=O)N1 (stereo not drawn) [Example 14, (+)- or (−)-5-[3-[3-[[2-Fluoro-4-(trifluoromethyl)phenyl]methoxy]azetidin-1-yl]-3-oxo-propyl]-5-methyl-pyrrolidin-2-one] | 2110
15 | O=C1CC[C@H](COC(=O)N2CC(OCc3ccc(C(F)(F)F)cc3F)C2)N1 [Example 53, [(2R)-5-Oxopyrrolidin-2-yl]methyl 3-[[2-fluoro-4-(trifluoromethyl)phenyl]methoxy] azetidine-1-carboxylate] | 907

Further lines, results first:

Row | IC50 [nM] | SMILES
16 | 507 | O=C1N[C@H](CCC(=O)N2CC3(CCN(Cc4ccc(C(F)(F)F)nc4)CC3)C2)CO1 [Example 196, (4R)-4-[3-Oxo-3-[7-[[6-(trifluoro-methyl)-3-pyridyl]methyl]-2,7-diazaspiro [3.5]nonan-2-yl]propyl] oxazolidin-2-one]
17 | 25 | O=C1N[C@H](CCC(=O)N2CC3(CCC(Cc4ccc(C(F)(F)F)nc4)CC3)C2)CO1 [Example 188, (4R)-4-[3-Oxo-3-[7-[[6-(trifluoro-methyl)-3-pyridyl]methyl]-2-azaspiro[3.5]nonan-2-yI]propyl] oxazolidin-2-one]
18 | 62 | O=C1N[C@H](CCC(=O)N2CC3(CCC(NS(=O)(=O)c4cccc(OC(F)(F)F)c4)CC3)C2)CO1 [Example 138, N-[2-[3-[(4R)-2-Oxooxazolidin-4-yl]propanoyl]-2-azaspiro[3.5]nonan-7-yl]-3-(trifluoro-methoxy)benzene-sulfonamide]
19 | 17 | O=C1N[C@H](CCC(=O)N2CC3(CC(Oc4cncc(C(F)(F)F)n4)C3)C2)CO1 [Example 32, (4R)-4-[3-Oxo-3-[6-[6-(trifluoromethyl)pyrazin-2-yl]oxy-2-azaspiro[3.3]heptan-2-yl]propyl]oxazolidin-2-one]
20 | 1 | O=C1N[C@H](CCC(=O)N2CC(c3ccc(C4(C(F)(F)F)CC4)cc3)C2)CO1 [Example 22, (4R)-4-[3-Oxo-3-[3-[4-[1-(trifluoromethyl)cyclo-propyl]phenyl]azetidin-1-yl]propyl]oxazolidin-2-one]
21 | 17 | O=C1N[C@H](CCC(=O)N2CC(c3ccc(N4CCC(O)(C(F)(F)F)C4)nc3)C2)CO1 (stereo partly drawn) [Example 207, (+)- or (−)-(4R)-4-[3-[3-[6-[3-Hydroxy-3-(trifluoromethyl)pyrrolidin-1-yl]-3-pyridyl]azetidin-1-yl]-3-oxo-propyl]oxazolidin-2-one]
22 | 5 | O=C1N[C@H](CCC(=O)N2CC(c3ccc(N4CC(OCC(F)(F)F)C4)cc3)C2)CO1 [Example 99, (4R)-4-[3-Oxo-3-[3-[4-[3-(2,2,2-trifluoro-ethoxy)azetidin-1-yl]phenyl]azetidin-1-yl]propyl] oxazolidin-2-one]
23 | 181 | O=C1N[C@H](CCC(=O)N2CC(c3ccc(-c4nc(C5(C(F)(F)F)CC5)n[nH]4)cc3)C2)CO1 [Example 178, (4R)-4-[3-Oxo-3-[3-[4-[3-[1-(trifluoro-methyl)cyclo-propyl]-1H-1,2,4-triazol-5-yl]phenyl]azetidin-1-yl]propyl]oxazolidin-2-one]
24 | 324 | O=C1N[C@H](CCC(=O)N2CC3(CCN(Cc4ccc(C(F)(F)F)cn4)CC3)C2)CO1 [Example 197, (4R)-4-[3-Oxo-3-[7-[[5-(trifluoro-methyl)-2-pyridyl]methyl]-2,7-diazaspiro [3.5]nonan-2-yl]propyl] oxazolidin-2-one]
